{"source": "patent US10287328B2", "about": "“Treatment of diabetes, toll-like receptor 4 modulators and methods for using the same” (KeMyth Biotech Co., Ltd., priority 2016, dated 2019)", "key": {"[1]": {"test_system": "HUVECs", "format": "cell-based, human", "conditions": "for toxicity to HUVECs (FIG. 15): MTS assay, 1, 10 or 100 nM, statement for high concentration (100 nM)", "method": "Cell viability was detected by a methanethiosulfonate (MTS) assay. In brief, 2×10^4 HUVECs were seeded to a 48-well plates in 100 μl endothelial cell medium (ECM, ScienCell Research Laboratory, Cat. 1001, USA) per well and incubated for 24 hrs. The media was removed and the cells were then incubated with media having 2% fetal bovine serum (FBS), in the absence or presence of various peptides, such as PLY, PLY123, PLY4, C70PLY4 or N35PLY4, at a concentration of 1, 10 or 100 nM. After incubation for 18 hours, the media was removed and 20 μl MTS reagents (20%) were added to each well in the final volume of 100 μl and placed in incubator for 1 hours. The optical density was measured at 490 nm using a plate reader."}, "[2]": {"test_system": "neointima formation of aorta", "assay": "Neointima formation of aorta (HE stain) in STZ-treated HFD-fed rats", "format": "in vivo", "method": "The ascending part of aorta were taken from mice, including control health mice and HFD induced diabetic mice, with and without treatment of C70PLY4, and kept in 10% formalin buffered for 24 h. The specimens were routinely embedded in paraffin blocks and cut in transversal sections (3 μm). The slides were stained with hematoxylin and eosin. The specimens were analyzed with light microscope.\nThe present study determined if C70PLY4 attenuates the status of atherosclerosis in HFD-fed rats."}, "[3]": {"test_system": "HUVECs", "assay": "Cell apoptosis, TUNEL assay in HUVECs", "format": "cell-based, human", "conditions": "positive control of TUNEL and caspase-3 assays", "method": "Cell apoptosis was detected by using commercial terminal deoxynucleotidyl transferase-dUTP nick end labeling (TUNEL) and caspase-3 activity kits, i.e., Apo-BrdU in Situ DNA Fragmentation Assay Kit (BioVision) and NucView™ 488 Caspase-3 Enzyme Substrate (Biotium). In brief, after incubation with M199 media in the presence or absence of […] various PLY peptides, at 37° C., 5% CO2 for 1 hour, HUVECs were washed with PBS and fixed with fixation buffer on ice for 20 min. Cells were then soaked in 70% alcohol for 1 hr. After 2 times of wash by washing buffer, cells were incubated in DNA labeling solution for 60 min at 37° C. Cells were then treated with rinse buffer and incubated with antibody buffer for 30 min at room temperature. The cell nuclei were stained with propidium iodide for 30 min. Samples were observed by fluorescent microscopeand photographed charge-coupled device (CCD) camera."}, "[4]": {"biological_target": "MD2/TLR4 interaction (Homo sapiens, UniProt O00206)", "sequence (O00206 24-631)": "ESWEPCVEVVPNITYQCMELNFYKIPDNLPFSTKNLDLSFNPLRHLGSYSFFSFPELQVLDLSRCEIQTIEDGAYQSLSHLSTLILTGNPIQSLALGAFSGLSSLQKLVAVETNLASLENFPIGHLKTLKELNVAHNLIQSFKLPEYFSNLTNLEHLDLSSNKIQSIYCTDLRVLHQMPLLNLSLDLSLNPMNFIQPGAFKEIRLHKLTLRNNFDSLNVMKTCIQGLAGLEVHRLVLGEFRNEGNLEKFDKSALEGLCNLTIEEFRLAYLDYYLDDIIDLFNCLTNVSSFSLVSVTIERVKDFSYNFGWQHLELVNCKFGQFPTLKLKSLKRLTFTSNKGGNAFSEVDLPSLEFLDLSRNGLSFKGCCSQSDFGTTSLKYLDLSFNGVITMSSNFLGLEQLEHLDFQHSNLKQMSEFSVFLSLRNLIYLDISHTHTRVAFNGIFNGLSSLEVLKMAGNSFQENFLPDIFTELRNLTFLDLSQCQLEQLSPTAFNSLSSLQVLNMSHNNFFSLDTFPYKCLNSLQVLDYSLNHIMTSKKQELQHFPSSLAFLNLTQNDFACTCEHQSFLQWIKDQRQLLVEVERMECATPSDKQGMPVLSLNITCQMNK", "assay": "In vitro protein competition binding assay for MD2/TLR4 interaction", "conditions": "MD2 50 nM, peptide 50 μM to 3.05 nM", "method": "The recombinant TLR4 protein was diluted in PBS (2 μg/mL) and immobilized on a 96-well (100 ng/well) ELISA plate by incubation at 37° C. for 2 h. The wells were washed three times with PBS, followed by blocking with the addition of 300 μL 5% BSA in PBS at ambient temperature overnight. Then, the plate was rewashed three times with PBST before performed competition binding assay. The binding of MD2 (50 nM) to TLR4 was competed by adding various amounts (2-fold serial dilution from 50 μM to 3.05 nM) of C70PLY4, N35PLY4, or M50PLY4 peptide, and the residual binding was examined using anti-MD2 and anti-mouse-IgG-HRP antibodies diluted in 1% BSA as described in herein."}, "[5]": {"biological_target": "recombinant TLR4 protein (Homo sapiens, UniProt O00206)", "sequence (O00206 24-839)": "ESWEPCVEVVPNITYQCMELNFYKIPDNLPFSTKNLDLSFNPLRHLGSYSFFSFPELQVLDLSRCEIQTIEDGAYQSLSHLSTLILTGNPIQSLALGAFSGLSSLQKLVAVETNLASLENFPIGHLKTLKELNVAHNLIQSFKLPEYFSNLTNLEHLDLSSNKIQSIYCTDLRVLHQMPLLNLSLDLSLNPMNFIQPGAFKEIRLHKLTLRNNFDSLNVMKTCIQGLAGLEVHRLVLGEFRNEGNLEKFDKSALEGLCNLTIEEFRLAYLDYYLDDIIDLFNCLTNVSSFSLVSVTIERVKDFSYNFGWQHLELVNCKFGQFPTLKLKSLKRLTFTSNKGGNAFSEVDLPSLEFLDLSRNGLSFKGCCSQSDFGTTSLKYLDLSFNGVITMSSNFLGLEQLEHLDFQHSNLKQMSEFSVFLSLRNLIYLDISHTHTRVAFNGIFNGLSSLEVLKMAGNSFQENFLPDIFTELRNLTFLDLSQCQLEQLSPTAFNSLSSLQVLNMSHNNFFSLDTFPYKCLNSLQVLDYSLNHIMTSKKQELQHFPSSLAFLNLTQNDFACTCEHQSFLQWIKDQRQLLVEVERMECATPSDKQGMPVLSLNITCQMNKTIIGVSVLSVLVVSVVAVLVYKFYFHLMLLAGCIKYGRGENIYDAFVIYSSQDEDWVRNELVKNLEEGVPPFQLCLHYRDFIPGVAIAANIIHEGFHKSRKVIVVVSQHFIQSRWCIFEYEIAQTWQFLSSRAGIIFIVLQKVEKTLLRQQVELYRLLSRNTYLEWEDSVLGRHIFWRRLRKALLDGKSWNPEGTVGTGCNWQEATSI", "assay": "In vitro protein binding assay for MD2 and TLR4 (ELISA)", "conditions": "TLR4 2 μg/mL coated, MD2 133.3 to 0.065 nM; read-out: Kd, binding affinity to the TLR4 protein", "method": "The recombinant TLR4 protein was diluted in phosphate buffer saline (PBS) (2 μg/mL) and immobilized on a 96-well (100 ng/well) enzyme-linked immunosorbent assay (ELISA) plate by incubation at 37° C. for 2 h. The wells were washed three times with PBS, followed by blocking with the addition of 300 μL 5% bovine serum albumin (BSA) in PBS at ambient temperature overnight. Then, the plate was washed three times with PBST (PBS with 0.05% Tween 20 solution) before the addition of the recombinant MD2 protein solutions at various concentrations (2-fold serial dilution from 133.3 to 0.065 nM). The ligands (MD2) and TLR4 proteins were incubated at 37° C. for 2 h, and the plate was then washed three times with PBST, followed by the addition of 100 μL anti-MD2 antibodies diluted in 1% BSA (1:1000). After incubation at ambient temperature for 1 h, the plate was washed with PBST three times, followed by the addition of 100 μL anti-mouse IgG-HRP antibodies diluted in 1% BSA (1:2000). After incubation at ambient temperature for 1 h, the plate was washed with PBST three times, followed by the addition of 100 μL of the HRP substrate (i.e. 3,3′,5,5′-tetramethylbenzidine, TMB) to each well. […] The optical density (OD450) in each well was determined using an ELISA plate reader. […]"}, "[6]": {"test_system": "TLR4", "assay": "LPS-induced PMN transendothelial migration, PMNs from wild type C3H/HeN mice", "format": "cell-based", "conditions": "for LPS induced PMN migration (FIGS. 11-12): WT mice model", "method": "(§1) To obtain mice neutrophils from TLR4-deficient [TLR4(−/−)] C3H/HeJ mice and wild type C3H/HeN mice, inflammation was induced by 0.1 ml of uric acid solution into the peritoneal cavity of the mouse. The uric acid solution (noncrystalline form) was prepared by mixing with saline (10% [wt/vol]) and sonicated for 10 min. Immediately before inoculation, the milky white precipitated uric acid solution was shaken vigorously. Peritoneal exudate cells were harvested 4, 18, or 24 h after injection by two lavages of the peritoneal cavity with 5 ml of cold phosphate-buffered saline (PBS; total volume, 10 ml). Uric acid-induced peritoneal cells (UAPMN) were washed by centrifugation at 200×g for 10 min at 4° C. Followed by hypotonic lysis to eliminate red blood cells, centrifugation and an additional wash were performed. The cells were then resuspended in Krebs-Ringer phosphate buffer (KRG; pH 7.3). The numbers and populations of peritoneal exudate cells were determined by staining the nuclei with Turk reagent and by cytospin centrifugation followed by May-Grünwald-Giemsa staining, respectively. Uric acid injection into the peritoneal cavity gave a yield of 1 to 2×10^7 cells/mouse depending on time of incubation (4 hr). The levels of purity of the uric acid-induced PMN were 95% after 4 h postinjection. Viability of the isolated neutrophils exceeded 95% as determined by trypan blue exclusion. The PMN from TLR4(−/−) C3H/HeJ mice and wild type C3H/HeN mice were then used for PMN transmigration Assay.\nNeutrophils from human were isolated blood that was drawn in a syringe containing preservative-free heparin (20 U/ml final), and mixed with an equal volume of PBS containing 3% dextran and then incubated for 20 min at room temperature. The leukocyte-rich plasma (upper layer) was collected and pellet cells was obtained from the plasma by centrifuge and resuspended in 0.9% NaCl. Layer 10 ml Ficoll-Hypaque solution beneath the cell suspension. After centrifuge 1500×g for 20 min, aspirate the Ficoll-Hypaque layer, leaving the neutrophil/RBC pellet. Cells were subjected to hypotonic lysis by resuspending each neutrophil/RBC pellet in cold 0.2% NaCl for 30 sec. At the end of this period, restore isotonicity by adding ice-cold 1.6% NaCl. After centrifuge, resuspend cells in ice-cold PBS/glucose buffer. Neutrophils from mice were isolated from the peritoneum as previously described. See, e.g., Rabes et al., Curr Top Microbiol Immunol 397:215-227 (2016). The cell concentration was adjusted to […]. The viability of the isolated neutrophils exceeded 95%, as determined by Trypan blue exclusion.\nTransendothelial migration was performed by using a Transwell system. Transwell filters were pre-seeded with HUVEC monolayers for 24 hrs and transferred to clean 24-well plates. HUVECs were washed twice with DPBS, 500 μl of ECM was added to the Transwell filter compartment and 10^6 neutrophils were then added in upper chamber. Transendothelial migration was stimulated by addition of LPS to the lower chamber to a final concentration of 1 μg/ml. Cells were incubated with the endothelial cells for 1 h at 37° C. At the conclusion of the incubation, migrated cells were collected from the lower chamber and counted in a hemacytometer in triplicate. Percent PMN transmigration was calculated by dividing the number of PMN recovered from the lower chamber by the number of PMN initially added.\nPMN transendothelial migration plays an important role in early stage of atherogenesis. […]."}, "[7]": {"test_system": "PMNs isolated from TLR4(−/−) mice C3H/HeJ", "assay": "LPS-induced PMN transendothelial migration, PMNs from TLR4(-/-) C3H/HeJ mice", "format": "cell-based", "conditions": "LPS 1 μg/ml, HUVEC monolayer Transwell", "method": "as §1, with “Followed by hypotonic lysis to eliminate red blood cells, centrifugation and an additional wash were performed. The cells were then resuspended in Krebs-Ringer phosphate buffer (KRG; pH 7.3).” left out, “Uric acid injection into the peritoneal cavity gave a yield of 1 to 2×10^7 cells/mouse depending on time of incubation (4 hr). The levels of purity of the uric acid-induced PMN were 95% after 4 h postinjection.” left out, “The PMN from TLR4(−/−) C3H/HeJ mice and wild type C3H/HeN mice were then used for PMN transmigration Assay.” left out\nNeutrophils from human were isolated blood that was drawn in a syringe containing preservative-free heparin (20 U/ml final), and mixed with an equal volume of PBS containing 3% dextran and then incubated for 20 min at room temperature. […] The viability of the isolated neutrophils exceeded 95%, as determined by Trypan blue exclusion. […]"}}, "note": "Where a SMILES comes first, the peptide text is derived from it.", "data": [{"compound": "CC[C@H](C)[C@H](NC(=O)[C@H](CCCCN)NC(=O)[C@@H](NC(=O)[C@H](CO)NC(=O)[C@H](CC(C)C)NC(=O)[C@H](CC(N)=O)NC(=O)[C@H](CCCNC(=N)N)NC(=O)[C@@H](NC(=O)[C@H](CC(N)=O)NC(=O)CNC(=O)[C@H](CCCCN)NC(=O)[C@H](CC(C)C)NC(=O)[C@@H]1CCCN1C(=O)[C@@H](NC(=O)[C@H](CO)NC(=O)[C@@H](NC(=O)[C@@H](NC(=O)[C@H](Cc1ccccc1)NC(=O)[C@H](Cc1c[nH]cn1)NC(=O)[C@H](C)NC(=O)[C@@H](NC(=O)[C@H](CC(C)C)NC(=O)[C@H](CC(=O)O)NC(=O)[C@@H](N)CCC(N)=O)[C@@H](C)O)[C@@H](C)O)[C@@H](C)O)[C@@H](C)CC)C(C)C)C(C)C)C(=O)N[C@@H](CCCNC(=N)N)C(=O)N[C@@H](CCC(=O)O)C(=O)N[C@@H](CS)C(=O)N[C@H](C(=O)NCC(=O)N[C@@H](CC(C)C)C(=O)N[C@@H](C)C(=O)N[C@@H](Cc1c[nH]c2ccccc12)C(=O)N[C@@H](CCC(=O)O)C(=O)N[C@@H](Cc1c[nH]c2ccccc12)C(=O)N[C@@H](Cc1c[nH]c2ccccc12)C(N)=O)[C@@H](C)O", "note": "[N35PLY4] (H-QDLTAHFTTSIPLKGNVRNLSVKIRECTGLAWEWW-NH2)", "values": [{"measurement": "toxicity to HUVECs (FIG. 15)", "setting": "[1]", "value": "no toxic effects"}]}, {"compound": "CC(=O)N[C@@H](CS)C(=O)O", "note": "[NAC, N-acetylcycteine, reference compound]", "values": [{"measurement": "neointima formation of aorta induced by STZ", "setting": "[2]", "value": "partially improve the STZ effect on the neointima formation"}]}, {"compound": "CC[C@@]1(O)C(=O)OCc2c1cc1n(c2=O)Cc2cc3ccccc3nc2-1", "note": "[camptothecin, reference compound]", "values": [{"measurement": "apoptotic cells", "setting": "[3]", "value": "about 60%"}]}, {"compound": "M50PLY4: peptide of 6th to 55th amino acid residues of C70PLY4 (407-456), lacking the N-terminal motif QDLTA, SEQ ID NO: 8 (HFTTSIPLKGNVRNLSVKIRECTGLAWEWWRTVYEKTDLPLVRKRTISIW) [reference compound]", "values": [{"measurement": "blocking capability for MD2 and TLR4 protein interaction (in words)", "setting": "[4]", "value": "no competitive capability"}]}, {"compound": "MD2: recombinant MD2 protein, an extracellular protein associated with the extracellular domain of TLR4 protein", "values": [{"measurement": "Kd", "setting": "[5]", "value": "18.4 ± 3.9", "unit": "nM"}]}, {"compound": "N35PLY4m24L25K: N35PLY4 with double mutations, position 24 I to L and position 25 R to K, SEQ ID NO: 7 (QDLTAHFTTSIPLKGNVRNLSVKLKECTGLAWEWW)", "values": [{"measurement": "LPS induced PMN migration (FIGS. 11-12)", "setting": "[6]", "value": "inhibitory effects"}]}, {"compound": "N35PLY4m25K (QDLTAHFTTSIPLKGNVRNLSVKIKECTGLAWEWW)", "values": [{"measurement": "LPS induced PMN migration (FIGS. 11-12)", "setting": "[6]", "value": "inhibitory effects"}]}, {"compound": "full-length PLY: full length pneumococcal pneumolysin, 1-471 amino acid residues, SEQ ID NO: 1, prepared by recombinant technology [reference compound]", "values": [{"measurement": "PMNs migration, TLR4(−/−) mice model (FIG. 10)", "setting": "[7]", "value": "did not affect the PMNs migration"}, {"measurement": "cells survived", "setting": "[1]; HUVECs, 100 nM, 18 hours, MTS", "value": 30, "unit": "%"}, {"measurement": "toxicity to HUVECs (FIG. 15)", "setting": "[1]", "value": "toxic to cells"}, {"measurement": "PMNs migration, WT mice model (FIG. 10)", "setting": "[6]; PMNs from C3H/HeN mice, LPS 1 μg/ml, HUVEC monolayer Transwell", "value": "did not affect the PMNs migration"}, {"measurement": "LPS induced PMN migration (FIGS. 11-12)", "setting": "[6]", "value": "enhances PMN migration induced by LPS"}]}]}
